Tests used:
Cryptosporidium parvum = test: Antiparasitic activity against Cryptosporidium parvum infected in human HCT-8 cells assessed as parasitic growth inhibition incubated for 48 hrs by fluorescence microscopic analysis; assay type: functional, organism-based; details: HCT-8, 48 h
HCT-8 = test: Cytotoxicity against human HCT-8 cells assessed as reduction in cell number upto 50 uM incubated for 48 hrs by; assay type: toxicity, cell-based; details: hct-8, 48 h
[1] = molecular target: Voltage-gated inwardly rectifying potassium channel KCNH2 (Homo sapiens, UniProt Q12809); test: (§1) Displacement of [3H]Dofetilide from human ERG at 30 uM by automated patch clamp assay relative to control; details: 30 µM
[2] = Metabolic stability in mouse liver microsomes assessed as intrinsic clearance measured upto 60 mins; assay type: ADME, Microsome; details: read-out: CLH
[3] = Metabolic stability in mouse liver microsomes assessed as half life measured upto 60 mins; assay type: ADME, Microsome; details: 1 h
[4] = Metabolic stability in mouse intestinal S9 fraction assessed as intrinsic clearance measured upto 60 mins; assay type: ADME, subcellular, Intestine; details: read-out: CLH
[5] = Metabolic stability in mouse intestinal S9 fraction assessed as half life measured upto 60 mins; assay type: ADME, subcellular, Intestine; details: s9, 1 h
[6] = Plasma protein binding in mouse at 1 uM incubated for 30 mins by LC-MS/MS analysis; assay type: ADME, cell-free; details: 0.5 h
[7] = Plasma protein binding in human at 1 uM incubated for 30 mins by LC-MS/MS analysis; assay type: ADME, cell-free; details: 0.5 h
[8] = AUC in mouse plasma at 5 mg/kg, po measured upto 24 hrs by LC-MS/MS analysis; assay type: ADME, organism-based; parameters: dose 5 mg/kg, time < 24 hrs, route po; details: in vivo
[9] = AUC in mouse Jejunum at 5 mg/kg, po measured upto 24 hrs by LC-MS/MS analysis; assay type: ADME, organism-based; parameters: dose 5 mg/kg, time < 24 hrs, route po; details: in vivo
[10] = Cmax in mouse plasma at 5 mg/kg, po measured upto 24 hrs by LC-MS/MS analysis; assay type: ADME, organism-based; parameters: time < 24 hrs, dose 5 mg/kg, route po; details: in vivo
[11] = Cmax in mouse Jejunum at 5 mg/kg, po measured upto 24 hrs by LC-MS/MS analysis; assay type: ADME, organism-based; parameters: dose 5 mg/kg, time < 24 hrs, route po; details: in vivo
[12] = Tmax in mouse plasma at 5 mg/kg, po measured upto 24 hrs by LC-MS/MS analysis; assay type: ADME, organism-based; details: in vivo
[13] = Tmax in mouse Jejunum at 5 mg/kg, po measured upto 24 hrs by LC-MS/MS analysis; assay type: ADME, organism-based; details: in vivo
hERG (KCNH2) = hERG (KCNH2) (Homo sapiens, UniProt Q12809); test: as §1; details: probe [3H]Dofetilide, read-out: Activity
Chain of hERG (KCNH2) (Q12809 whole entry): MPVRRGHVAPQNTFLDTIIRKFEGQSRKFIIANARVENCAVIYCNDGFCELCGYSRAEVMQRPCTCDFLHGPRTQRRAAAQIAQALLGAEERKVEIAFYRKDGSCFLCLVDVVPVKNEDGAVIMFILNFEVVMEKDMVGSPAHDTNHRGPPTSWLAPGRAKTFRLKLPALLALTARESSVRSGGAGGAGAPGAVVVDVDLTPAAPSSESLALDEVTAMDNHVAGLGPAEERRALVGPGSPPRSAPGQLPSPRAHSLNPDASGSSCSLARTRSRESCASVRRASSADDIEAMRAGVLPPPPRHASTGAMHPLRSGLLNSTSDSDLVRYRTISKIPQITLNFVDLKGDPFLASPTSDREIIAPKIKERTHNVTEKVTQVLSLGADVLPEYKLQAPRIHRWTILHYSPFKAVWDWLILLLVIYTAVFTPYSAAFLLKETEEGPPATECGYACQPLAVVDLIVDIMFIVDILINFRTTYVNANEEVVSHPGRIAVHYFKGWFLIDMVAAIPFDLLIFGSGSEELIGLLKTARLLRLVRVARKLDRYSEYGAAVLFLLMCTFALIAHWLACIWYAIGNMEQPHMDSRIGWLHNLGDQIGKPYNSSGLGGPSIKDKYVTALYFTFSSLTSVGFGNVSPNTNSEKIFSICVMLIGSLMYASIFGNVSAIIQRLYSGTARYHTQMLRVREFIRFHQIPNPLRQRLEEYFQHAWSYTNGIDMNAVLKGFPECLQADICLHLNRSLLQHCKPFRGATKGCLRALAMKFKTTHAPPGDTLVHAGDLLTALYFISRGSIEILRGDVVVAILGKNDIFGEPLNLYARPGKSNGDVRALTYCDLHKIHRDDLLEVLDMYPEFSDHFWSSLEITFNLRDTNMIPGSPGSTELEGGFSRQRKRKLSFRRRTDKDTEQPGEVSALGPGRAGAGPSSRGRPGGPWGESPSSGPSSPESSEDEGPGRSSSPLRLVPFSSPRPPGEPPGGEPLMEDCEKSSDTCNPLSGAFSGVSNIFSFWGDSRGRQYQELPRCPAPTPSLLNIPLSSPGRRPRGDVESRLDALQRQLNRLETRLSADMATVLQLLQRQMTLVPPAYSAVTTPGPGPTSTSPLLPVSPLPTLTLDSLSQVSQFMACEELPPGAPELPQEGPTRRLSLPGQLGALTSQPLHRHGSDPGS

Chain of Voltage-gated inwardly rectifying potassium channel KCNH2 (Q12809 whole entry): as above

Row | Compound | EC50 (Cryptosporidium parvum) | Activity (HCT-8) | other results
1 | COc1ccc(CC(=O)N2CCN(c3ccc4nncn4n3)CC2)cc1F | 12000 nM | Non-Toxic | –
2 | O=C(Cc1cc(F)cc(C(F)(F)F)c1)N1CCN(c2ccc3nncn3n2)CC1 | 1700 nM | Non-Toxic | –
3 | O=C(Cc1ccc(C(F)(F)F)c(Cl)c1)N1CCN(c2ccc3nncn3n2)CC1 | 340 nM | Non-Toxic | –
4 | O=C(Cc1cccc(S(F)(F)(F)(F)F)c1)N1CCN(c2ccc3nncn3n2)CC1 | 1100 nM | Non-Toxic | –
5 | O=C(Cc1ccc(-c2ccccc2)cc1)N1CCN(c2ccc3nncn3n2)CC1 | 56000 nM | Non-Toxic | –
6 | N#Cc1cc(CC(=O)N2CCN(c3ccc4nncn4n3)CC2)ccc1F | 2100 nM | Non-Toxic | –
7 | O=C(Cc1ccccc1Cl)N1CCN(c2ccc3nncn3n2)CC1 | > 25000 nM | Non-Toxic | –
8 | O=C(Cc1ccc(O)cc1)N1CCN(c2ccc3nncn3n2)CC1 | > 50000 nM | Non-Toxic | –
9 | COc1cc(CC(=O)N2CCN(c3ccc4nncn4n3)CC2)ccc1F | 1000 nM | Non-Toxic | –
10 | O=C(Cc1cccc(O)c1)N1CCN(c2ccc3nncn3n2)CC1 | 34000 nM | Non-Toxic | –
11 | Cc1cc(CC(=O)N2CCN(c3ccc4nncn4n3)CC2)cc(C(F)(F)F)c1F | 70 nM | Non-Toxic | –
12 | O=C(Cc1cc(F)cc(Cl)c1)N1CCN(c2ccc3nncn3n2)CC1 | 880 nM | Non-Toxic | –
13 | O=C(Cc1cc(C(F)(F)F)ccc1F)N1CCN(c2ccc3nncn3n2)CC1 | 15000 nM | Non-Toxic | –
14 | Cc1ccccc1CC(=O)N1CCN(c2ccc3nncn3n2)CC1 | > 50000 nM | Non-Toxic | –
15 | COc1ccc(CC(=O)N2CCN(c3ccc4nncn4n3)CC2)cc1 | – | Non-Toxic | –
16 | O=C(Cc1cccc(Br)c1)N1CCN(c2ccc3nncn3n2)CC1 | 2200 nM | Non-Toxic | –
17 | N#Cc1ccc(CC(=O)N2CCN(c3ccc4nncn4n3)CC2)cc1F | 1600 nM | Non-Toxic | –
18 | O=C(Cc1ccc(Cl)c(F)c1)N1CCN(c2ccc3nncn3n2)CC1 | 410 nM | Non-Toxic | –
19 | O=C(Cc1cccc(C(F)(F)F)c1)N1CCN(c2ccc3nncn3n2)CC1 | 1100 nM | Non-Toxic | –
20 | O=C(Cc1cccc(C(F)(F)F)c1F)N1CCN(c2ccc3nncn3n2)CC1 | 62000 nM | Non-Toxic | –
21 | O=C(Cc1ccc(CO)cc1)N1CCN(c2ccc3nncn3n2)CC1 | > 25000 nM | Non-Toxic | –
22 | O=C(Cc1ccc(S(F)(F)(F)(F)F)cc1)N1CCN(c2ccc3nncn3n2)CC1 | 12000 nM | Non-Toxic | –
23 | O=C(Cc1cccc(Cl)c1)N1CCN(c2ccc3nncn3n2)CC1 | – | Non-Toxic | –
24 | O=C(Cc1ccc(Br)cc1)N1CCN(c2ccc3nncn3n2)CC1 | 1100 nM | Non-Toxic | –

Row | Compound | EC50 (Cryptosporidium parvum) | Activity (HCT-8) | other results
25 | O=C(Cc1ccc(Cl)c(Cl)c1)N1CCN(c2ccc3nncn3n2)CC1 | – | – | Activity [1]: 46%; microsomal CLint [2]: 85.2 µL/min/mg; t1/2 [3]: 1.38 h; microsomal CLint [4]: < 5.8 µL/min/mg; t1/2 [5]: > 2 h; PPB [6]: 92.7%; PPB [7]: 98.2%; AUC [8]: 3387 ng·h/mL; AUC [9]: 3013 ng·h/g; Cmax [10]: 532 ng/mL; Cmax [11]: 317 ng/g; Tmax [12]: 1 h; Tmax [13]: 1 h
26 | O=C(Cc1ccc(Br)c(F)c1)N1CCN(c2ccc3nncn3n2)CC1 | 770 nM | Non-Toxic | –
27 | Cc1cc(CC(=O)N2CCN(c3ccc4nncn4n3)CC2)ccc1F | 370 nM | Non-Toxic | –
28 | O=C(Cc1ccc([N+](=O)[O-])c(F)c1)N1CCN(c2ccc3nncn3n2)CC1 | 25000 nM | Non-Toxic | –
29 | O=C(Cc1cc(Cl)cc(C(F)(F)F)c1)N1CCN(c2ccc3nncn3n2)CC1 | 410 nM | Non-Toxic | –
30 | O=C(Cc1ccccc1Br)N1CCN(c2ccc3nncn3n2)CC1 | > 50000 nM | Non-Toxic | –
31 | O=C(Cc1ccc(F)c([N+](=O)[O-])c1)N1CCN(c2ccc3nncn3n2)CC1 | 620 nM | Non-Toxic | –
32 | O=C(Cc1ccc(Cl)cc1Cl)N1CCN(c2ccc3nncn3n2)CC1 | > 25000 nM | Non-Toxic | –
33 | O=C(Cc1ccc(F)c(Br)c1)N1CCN(c2ccc3nncn3n2)CC1 | 230 nM | Non-Toxic | –
34 | O=C(Cc1ccc(Cl)c(Br)c1)N1CCN(c2ccc3nncn3n2)CC1 | 120 nM | Non-Toxic | –
35 | Cc1cc(F)ccc1CC(=O)N1CCN(c2ccc3nncn3n2)CC1 | 22000 nM | Non-Toxic | –
36 | O=C(Cc1ccc([N+](=O)[O-])cc1)N1CCN(c2ccc3nncn3n2)CC1 | – | Non-Toxic | –
37 | O=C(Cc1ccc(F)c(F)c1)N1CCN(c2ccc3nncn3n2)CC1 | 760 nM | Non-Toxic | –
38 | O=C(Cc1cccc(F)c1)N1CCN(c2ccc3nncn3n2)CC1 | 14000 nM | Non-Toxic | –
39 | O=C(Cc1ccccc1F)N1CCN(c2ccc3nncn3n2)CC1 | > 60000 nM | Non-Toxic | –
40 | O=C(Cc1cc(F)cc(F)c1)N1CCN(c2ccc3nncn3n2)CC1 | 5700 nM | Non-Toxic | –
41 | N#Cc1ccc(CC(=O)N2CCN(c3ccc4nncn4n3)CC2)cc1 | – | Non-Toxic | –
42 | Cc1cccc(CC(=O)N2CCN(c3ccc4nncn4n3)CC2)c1 | 12000 nM | Non-Toxic | –
43 | O=C(Cc1cccc(-c2ccccc2)c1)N1CCN(c2ccc3nncn3n2)CC1 | 25000 nM | Non-Toxic | –
44 | N#Cc1cccc(CC(=O)N2CCN(c3ccc4nncn4n3)CC2)c1 | 38000 nM | Non-Toxic | –
45 | Cc1ccc(CC(=O)N2CCN(c3ccc4nncn4n3)CC2)cc1 | 10000 nM | Non-Toxic | –
46 | O=C(Cc1cccc([N+](=O)[O-])c1)N1CCN(c2ccc3nncn3n2)CC1 | 18000 nM | Non-Toxic | –
47 | O=C(Cc1cc(F)c(F)c(F)c1)N1CCN(c2ccc3nncn3n2)CC1 | 400 nM | Non-Toxic | –
48 | COc1cccc(CC(=O)N2CCN(c3ccc4nncn4n3)CC2)c1 | – | Non-Toxic | –

Row | Compound | EC50 (Cryptosporidium parvum) | Activity (HCT-8) | other results
49 | O=C(Cc1cc(Cl)cc(Cl)c1)N1CCN(c2ccc3nncn3n2)CC1 | 1200 nM | Non-Toxic | –
50 | O=C(Cc1ccc(F)c(CF)c1)N1CCN(c2ccc3nncn3n2)CC1 | 760 nM | Non-Toxic | inhibition at 30 µM (hERG (KCNH2)): 38%
51 | O=C(Cc1ccc(C(F)(F)F)cc1)N1CCN(c2ccc3nncn3n2)CC1 | 5500 nM | Non-Toxic | –
52 | O=C(Cc1ccc(F)c(Cl)c1)N1CCN(c2ccc3nncn3n2)CC1 | 240 nM | Non-Toxic | –
53 | C#Cc1ccc(CC(=O)N2CCN(c3ccc4nncn4n3)CC2)cc1 | 880 nM | Non-Toxic | –
54 | O=C(Cc1ccc(Br)c(Cl)c1)N1CCN(c2ccc3nncn3n2)CC1 | 250 nM | Non-Toxic | –
55 | Cc1ccc(CC(=O)N2CCN(c3ccc4nncn4n3)CC2)cc1F | 5300 nM | Non-Toxic | –
56 | O=C(Cc1ccc(F)c(CO)c1)N1CCN(c2ccc3nncn3n2)CC1 | 17000 nM | Non-Toxic | –
57 | O=C(Cc1cc(C(F)(F)F)cc(C(F)(F)F)c1)N1CCN(c2ccc3nncn3n2)CC1 | 320 nM | Non-Toxic | Activity [1]: 54%
58 | O=C(Cc1cc(Cl)ccc1Cl)N1CCN(c2ccc3nncn3n2)CC1 | 58000 nM | Non-Toxic | –
59 | O=C(Cc1ccc(F)c(O)c1)N1CCN(c2ccc3nncn3n2)CC1 | > 50000 nM | Non-Toxic | –
60 | O=C(Cc1c(Cl)cccc1Cl)N1CCN(c2ccc3nncn3n2)CC1 | > 25000 nM | Non-Toxic | –
61 | Cc1ccc(CC(=O)N2CCN(c3ccc4nncn4n3)CC2)cc1Cl | 1100 nM | Non-Toxic | –
62 | O=C(Cc1ccc(C(F)(F)F)c(F)c1)N1CCN(c2ccc3nncn3n2)CC1 | 2000 nM | Non-Toxic | –
63 | O=C(Cc1ccc(Cl)cc1)N1CCN(c2ccc3nncn3n2)CC1 | – | Non-Toxic | –
64 | O=C(Cc1cccc(Cl)c1Cl)N1CCN(c2ccc3nncn3n2)CC1 | > 25000 nM | Non-Toxic | –
65 | O=C(Cc1ccc(O)c(F)c1)N1CCN(c2ccc3nncn3n2)CC1 | 53000 nM | Non-Toxic | –
66 | O=C(Cc1ccc(F)c(OC(F)(F)F)c1)N1CCN(c2ccc3nncn3n2)CC1 | 670 nM | Non-Toxic | –
67 | O=C(Cc1ccc(F)cc1)N1CCN(c2ccc3nncn3n2)CC1 | – | Non-Toxic | –
68 | O=C(Cc1ccc(Cl)c(C(F)(F)F)c1)N1CCN(c2ccc3nncn3n2)CC1 | 270 nM | Non-Toxic | –
69 | Cc1cc(CC(=O)N2CCN(c3ccc4nncn4n3)CC2)ccc1Cl | 270 nM | Non-Toxic | –
70 | O=C(Cc1ccc(F)c(C(F)F)c1)N1CCN(c2ccc3nncn3n2)CC1 | 470 nM | Non-Toxic | inhibition at 30 µM (hERG (KCNH2)): 23%
